Structures are written as SMILES. Where a SMILES comes first, the peptide text is derived from it. [ ]: non-standard residue; d: D form. Gly(N(CH2)2(3-indolyl)) = O=C(O)CNCCc1c[nH]c2ccccc12; Nspe = C[C@H](NCC(=O)O)c1ccccc1; Nlys = NCCCCNCC(=O)O

The subject of the series is red blood cells. The series can be described thus: Hemolysis assay. It counts as cell-based, Sprague-Dawley mouse. On the procedure:
To confirm cytotoxicity by the hemolytic activity of each peptoid synthesized in Example 1, hemolysis analysis was performed. The used blood was collected from a 13-week-old male Sprague-Dawley […] in a tube containing 158 UPS sodium heparin for preventing coagulation, and centrifuged at 4° C. for 10 minutes at 1,000 rpm. Afterward, the plasma was carefully removed, red blood cells were washed with phosphate-buffered saline (PBS: a mixed solution of 35 mM phosphate-buffered solution/150 mM NaCl, pH 7.4) three times and centrifuged at 1,000 rpm for 10 minutes. A 10% (v/v) red blood cell solution diluted in PBS was dispensed at 150 μL into a 96-well plate (microtiter plate), a peptoid solution was added at 50 μL, and 1% Triton X-100 was added. Afterward, the red blood cells were incubated at 37° C. for 1 hour, and the incubated 96-well plate was centrifuged at 1,000 rpm for 15 minutes. A supernatant was obtained and transferred to a new 96-well plate at 150 μL, and absorbance was measured using a spectrophotometer at 540 nm. Percent hemolysis may be calculated by the following Equation 1, and the corresponding results are shown in Tables 11 to 13. % Hemolysis=(A−C)/(B−C)×100 [Equation 1] In Equation 1, A is the absorbance of the peptoid solution at 540 nm, B is the absorbance of the 0.1% Triton X-100 at 540 nm, and C is the absorbance of the PBS solution at 540 nm.
The term HC50 denotes the concentration that lyses half of the red blood cells. A higher HC50 goes with weaker haemolysis. For `C[C@@H](c1ccccc1)N(CC(N)=O)C(=O)CN(C(=O)CN(CCCCN)C(=O)CN(C(=O)CN(CCCCN)C(=O)CN(CCCCN)C(=O)CN(C(=O)CN(C(=O)CN(CCCCN)C(=O)CN(C(=O)CN(C(=O)CN(CCCCN)C(=O)CN(CCc1c[nH]c2ccccc12)C(=O)CNCCc1c[nH]c2ccccc12)[C@@H](C)c1ccccc1)[C@@H](C)c1ccccc1)[C@@H](C)c1ccccc1)[C@@H](C)c1ccccc1)[C@@H](C)c1ccccc1)[C@@H](C)c1ccccc1` [Peptoid 35], the HC10 stood at 20.4 µM, the HC50 is 63.0 µM and the “Hmax (100 μM)” value is 82.6 ± 3.2%.
On to `C[C@@H](c1ccccc1)N(CC(=O)N(CCCCN)CC(=O)N(CC(=O)N(CC(=O)N(CCCCN)CC(=O)N(CC(=O)N(CC(=O)N(CCCCN)CC(=O)N(CC(=O)N(CC(=O)N(CCCCN)CC(=O)N(CCCCN)CC(N)=O)[C@@H](C)c1ccccc1)[C@@H](C)c1ccccc1)[C@@H](C)c1ccccc1)[C@@H](C)c1ccccc1)[C@@H](C)c1ccccc1)[C@@H](C)c1ccccc1)C(=O)CNCCc1c[nH]c2ccccc12` [Peptoid 64] (H-[Gly(N(CH2)2(3-indolyl))][Nspe][Nlys][Nspe][Nspe][Nlys][Nspe][Nspe][Nlys][Nspe][Nspe][Nlys][Nlys]-NH2), for which the HC10 is 70.7 µM, the 50% haemolytic concentration (HC50) is above 100 µM and the “Hmax (100 μM)” value is given as 18.9 ± 2.9%.
Turning to `C[C@@H](c1ccccc1)N(CC(N)=O)C(=O)CN(C(=O)CN(CCCCN)C(=O)CN(C(=O)CN(C(=O)CN(CCCCN)C(=O)CN(C(=O)CN(C(=O)CN(CCCCN)C(=O)CN(C(=O)CN(CCCCN)C(=O)CN(CCCCN)C(=O)CN(CCc1c[nH]c2ccccc12)C(=O)CNCCc1c[nH]c2ccccc12)[C@@H](C)c1ccccc1)[C@@H](C)c1ccccc1)[C@@H](C)c1ccccc1)[C@@H](C)c1ccccc1)[C@@H](C)c1ccccc1)[C@@H](C)c1ccccc1` [Peptoid 36], the HC10 was 15.3 µM, the concentration for 50% haemolysis (HC50) is 39.4 µM and the “Hmax (100 μM)” value stood at 89.1 ± 3.4%.
The matching figures for `C[C@@H](c1ccccc1)N(CC(N)=O)C(=O)CN(C(=O)CN(CCCCN)C(=O)CN(C(=O)CN(C(=O)CN(CCCCN)C(=O)CN(C(=O)CN(C(=O)CN(CCCCN)C(=O)CN(C(=O)CN(C(=O)CN(CCCCN)C(=O)CN(CCc1c[nH]c2ccccc12)C(=O)CNCCc1c[nH]c2ccccc12)[C@@H](C)c1ccccc1)[C@@H](C)c1ccccc1)[C@@H](C)c1ccccc1)[C@@H](C)c1ccccc1)[C@@H](C)c1ccccc1)[C@@H](C)c1ccccc1)[C@@H](C)c1ccccc1` [Peptoid 6]: 9.6 µM, 22.0 µM and 101.6 ± 5.8%.
The matching figures for `C[C@@H](c1ccccc1)N(CC(=O)N(CCCCN)CC(=O)N(CC(=O)N(CC(=O)N(CCCCN)CC(=O)N(CC(=O)N(CC(=O)N(CCCCN)CC(=O)N(CC(=O)N(CC(=O)N(CCc1c[nH]c2ccccc12)CC(N)=O)[C@@H](C)c1ccccc1)[C@@H](C)c1ccccc1)[C@@H](C)c1ccccc1)[C@@H](C)c1ccccc1)[C@@H](C)c1ccccc1)[C@@H](C)c1ccccc1)C(=O)CN(C(=O)CN(CCCCN)C(=O)CNCCc1c[nH]c2ccccc12)[C@@H](C)c1ccccc1` [Peptoid 5] (H-[Gly(N(CH2)2(3-indolyl))][Nlys][Nspe][Nspe][Nlys][Nspe][Nspe][Nlys][Nspe][Nspe][Nlys][Nspe][Nspe][Gly(N(CH2)2(3-indolyl))]-NH2): below 6.3 µM, 15.3 µM and 108.1 ± 2.7%.
Taken in the same sequence, the figures for `C[C@@H](c1ccccc1)N(CC(N)=O)C(=O)CN(CCCCN)C(=O)CN(C(=O)CN(CCCCN)C(=O)CN(CCCCN)C(=O)CN(C(=O)CN(C(=O)CN(CCCCN)C(=O)CN(C(=O)CN(C(=O)CN(CCCCN)C(=O)CN(C(=O)CNCCc1c[nH]c2ccccc12)[C@@H](C)c1ccccc1)[C@@H](C)c1ccccc1)[C@@H](C)c1ccccc1)[C@@H](C)c1ccccc1)[C@@H](C)c1ccccc1)[C@@H](C)c1ccccc1` [Peptoid 63] were 85.0 µM, above 100 µM and 12.7 ± 0.9%.

The values are drawn from US20240226228A1, “ANTIMICROBIAL PEPTOID HAVING IMPROVED SELECTIVITY AND ANTIMICROBIAL COMPOSITION COMPRISING SAME” (priority 2021, published 2024).
